Experiment [1] relates to MDA-MB-231 cells. Description: Conventional well-plate drug screening assay, CellTiter-Glo cell viability. The format is cell-based. Conditions: for effect on cell viability as a single agent: conventional assay. How it is done: These cells were incubated in a humidified incubator at 37° C. with 0% CO2 environment. Cells were harvested for experiments 2 days after the seeding by treating them with 0.25% trypsin-EDTA for 2 minutes. […] Conventional drug screening assays utilizing well-plates were conducted in parallel to evaluate the performance of the proposed microfluidic system. […] For control experiments using the conventional method, the concentrations of drugs were determined such that cells would be exposed in a well plate for 24 hours to the drug amount that is identical to those used for the microfluidic counterpart. […] The CellTiter-Glo Luminescent Cell Viability Assay (Promega, USA) was used to determine the cytotoxicity of tested drugs. First, the correlation between the luminescent intensity and the number of viable cells for the tested cell line was established from luminescence measurements from 96 well plates containing known-quantity of viable cells (LuMate, Model 4400) (see ESI FIG. 2 for calibration curve). For cytotoxicity studies on cells treated with the drugs, all cells present in the well, regardless their viability, were manually counted prior to adding the CellTiter-Glo reagent to the well. The number of viable cells was determined by identifying the corresponding number of viable cells represented by the measured luminescent intensity from the calibration curve. Viability was determined by taking the ratio between the number of viable cells and the total number of treated cells presented in the well.

For experiment [2], the system named is MDA-MB-231. Particulars: MDA-MB-231 (Akbos et al., 2005); read-out: Literature IC50; cited from earlier work.
Experiment [3] has as its system MDA-MB-231 cells. Description: Microfluidic vortex-assisted electroporation drug screening assay, CellTiter-Glo cell viability. The experiment is classed as cell-based. Particulars: for IC50: microfluidic electroporation, single agent, read-out: Proposed IC50; for effect on cell viability as a single agent: microfluidic assay. On the procedure:
These cells were incubated in a humidified incubator at 37° C. with […] environment. Cells were harvested for experiments 2 days after the seeding by treating them with 0.25% trypsin-EDTA for 2 minutes. The cells were pelleted by centrifuging for 5 minutes at 200×g and resuspended in the growth media to have a final concentration of 5×10^5 cells/mL. The system utilized the pneumatic flow control unit and the electrical equipment that we previously developed. Their detailed specifications and visualized operational protocols (Yun et al., 2013; Vickers et al., 2014) can be found elsewhere. In brief, the flow control unit independently and promptly pressurizes individual solution vials for rapid solution exchanges through the microfluidic system while the electrical equipment generates high-voltage short pulses across the electroporation chambers on demand. […] Solution vials, individually containing cells, drugs and a growth media for flushing, were mounted into the pneumatic flow control unit, and PEEK tubes from each vial inserted into designated inlet ports in the microfluidic electroporator. The system was flushed with the growth media at the operating pressure of 40 psi (equivalent to a flow rate of 400 μL/minute) for 90 seconds prior to the target cell injection step in order to prime the flow speed required for cell trapping (Hur et al., 2011). Once the desired size and number distribution of trapped cells were attained in each cell trapping vortex, not-trapped cells were removed from the device by switching the active solution port from the cell solution to the flush solution. […] The magnitude, V, the width, Kt, and the frequency of applied electrical pulses were monitored in real-time using an oscilloscope (Agilent, USA). Drug delivery doses were varied by exposing trapped cells to a single drug for incubation durations of 30, 60 and 120 seconds in continuous flow. For dual drug delivery tests, trapped cells were sequentially incubated in individual drugs with various dosage combinations by systematically changing treatment duration ratios of two drugs (e.g., 30:30 seconds, 30:60 seconds or 30:120 seconds). Upon completion of the drug delivery process, treated cells were suspended in the growth media and released from the device for downstream analysis by lowering the operating pressure to 30 psi. Collected cells were seeded in 96 well plates and cultured for 24 to 48 hours prior to the cytotoxicity assays. […] Conventional drug screening assays utilizing well-plates were conducted in parallel to evaluate the performance of the proposed microfluidic system. […] For control experiments using the conventional method, the concentrations of drugs were determined such that cells would be exposed in a well plate for 24 hours to the drug amount that is identical to those used for the microfluidic counterpart. […] The CellTiter-Glo Luminescent Cell Viability Assay (Promega, USA) was used to determine the cytotoxicity of tested drugs. First, the correlation between the luminescent intensity and the number of viable cells for the tested cell line was established from luminescence measurements from 96 well plates containing known-quantity of viable cells (LuMate, Model 4400) (see ESI FIG. 2 for calibration curve). For cytotoxicity studies on cells treated with the drugs, all cells present in the well, regardless their viability, were manually counted prior to adding the CellTiter-Glo reagent to the well. The number of viable cells was determined by identifying the corresponding number of viable cells represented by the measured luminescent intensity from the calibration curve. Viability was determined by taking the ratio between the number of viable cells and the total number of treated cells presented in the well.

For experiment [4], the system named is MC38 colon cancer cell line. Conditions: MC38 colon cancer cell line (Kuriyoma et al., 2000); read-out: Literature IC50; cited from earlier work.
Experiment [5] has as its system Ca-27 squamous carcinoma. Particulars: Ca-27 squamous carcinoma (Wang et al., 2012); read-out: Literature IC50; cited from earlier work.
The mark [6] stands for this setting: Homo sapiens, MDA-MB-231, well plate, single agent, read-out: Conventional IC50.

Consider four molecules from patent US20170183644A1, “DRUG COCKTAIL ANALYSES USING MICROSCALE VORTEX ASSISTED ELECTROPORATION” (President and Fellows of Harvard College, priority 2014, published 2017).

As for `CC[C@@]1(O)C(=O)OCc2c1cc1n(c2=O)Cc2cc3c(CN(C)C)c(O)ccc3nc2-1` [Topotecan, topotecan], the IC50 in experiment [1] (Homo sapiens, MDA-MB-231, FIG. 2 legend, values match conventional assay, read-out: IC50 (FIG. 2 legend)) is 2 µM; in experiment [1] (setting [6]), 2 µM; in experiment [2] it was 1.1 µM; in experiment [3] (Homo sapiens, MDA-MB-231), 1.2 µM. The “effect on cell viability as a single agent” value in experiment [1] (single agent) and in experiment [3] was “dose-dependently reduced survival” in each case.

As for bleomycin, the IC50 was 12 µM in experiment [4]; 30 µM in experiment [1] (FIG. 2 legend, values match conventional assay, read-out: IC50 (FIG. 2 legend)); 20 µM in experiment [1] (well plate, single agent, read-out: Conventional IC50); 0.12 µM in experiment [3].

With `Nc1ccn([C@@H]2O[C@H](CO)[C@@H](O)C2(F)F)c(=O)n1` [Gemcitabine, gemcitabine], the IC50 in experiment [5] is 340 µM; in experiment [1] (Homo sapiens, MDA-MB-231, FIG. 2 legend, value matches conventional assay, read-out: IC50 (FIG. 2 legend)), 2000 µM; in experiment [1] (setting [6]), 2000 µM; in experiment [3] (Homo sapiens, MDA-MB-231) it was 302 µM.

Take `O=c1c(O)c(-c2ccc(O)c(O)c2)oc2cc(O)cc(O)c12` [quercetin]: the “effect on cell viability as a single agent” value in experiment [1] (single agent) was “negligible and dose independent”; in experiment [1] (single agent, listed as Quercetin), “negligible cytotoxic effect”; in experiment [3], “negligible and dose independent”; in experiment [3] (listed as Quercetin), “negligible cytotoxic effect”.
